Reference: patent publication US9758538B2, “Pyrimidine derivatives” (PFIZER INC., priority 2015, dated 2017)

Each molecule was assayed against truncated PI3Kα (p110α/iSH2 p85α), PI3KA_Act (Homo sapiens (Human), UniProt P42336) (assay: PI3Kα biochemical kinase assay, fluorescence polarization format (PI3KA_Act)). Conditions: 0.5 nM p110α/iSH2 p85, 1 mM ATP, 30 μM PIP2, 15-min preincubation; Morrison equation fit; read-out: PI3KA_Act Ki.
Outline: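 Enzyme: His-tagged p110α/p85α niSH2 complex from Sf21 baculovirus expression, IMAC-purified, tag cleaved, then SEC. Reactions ran 30 min at room temperature, stopped with 10 mM EDTA pH 8 (final), and were read by fluorescence polarization.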

truncated PI3Kα (p110α/iSH2 p85α), PI3KA_Act, sequence (P42336 whole entry, the tested form may be a part): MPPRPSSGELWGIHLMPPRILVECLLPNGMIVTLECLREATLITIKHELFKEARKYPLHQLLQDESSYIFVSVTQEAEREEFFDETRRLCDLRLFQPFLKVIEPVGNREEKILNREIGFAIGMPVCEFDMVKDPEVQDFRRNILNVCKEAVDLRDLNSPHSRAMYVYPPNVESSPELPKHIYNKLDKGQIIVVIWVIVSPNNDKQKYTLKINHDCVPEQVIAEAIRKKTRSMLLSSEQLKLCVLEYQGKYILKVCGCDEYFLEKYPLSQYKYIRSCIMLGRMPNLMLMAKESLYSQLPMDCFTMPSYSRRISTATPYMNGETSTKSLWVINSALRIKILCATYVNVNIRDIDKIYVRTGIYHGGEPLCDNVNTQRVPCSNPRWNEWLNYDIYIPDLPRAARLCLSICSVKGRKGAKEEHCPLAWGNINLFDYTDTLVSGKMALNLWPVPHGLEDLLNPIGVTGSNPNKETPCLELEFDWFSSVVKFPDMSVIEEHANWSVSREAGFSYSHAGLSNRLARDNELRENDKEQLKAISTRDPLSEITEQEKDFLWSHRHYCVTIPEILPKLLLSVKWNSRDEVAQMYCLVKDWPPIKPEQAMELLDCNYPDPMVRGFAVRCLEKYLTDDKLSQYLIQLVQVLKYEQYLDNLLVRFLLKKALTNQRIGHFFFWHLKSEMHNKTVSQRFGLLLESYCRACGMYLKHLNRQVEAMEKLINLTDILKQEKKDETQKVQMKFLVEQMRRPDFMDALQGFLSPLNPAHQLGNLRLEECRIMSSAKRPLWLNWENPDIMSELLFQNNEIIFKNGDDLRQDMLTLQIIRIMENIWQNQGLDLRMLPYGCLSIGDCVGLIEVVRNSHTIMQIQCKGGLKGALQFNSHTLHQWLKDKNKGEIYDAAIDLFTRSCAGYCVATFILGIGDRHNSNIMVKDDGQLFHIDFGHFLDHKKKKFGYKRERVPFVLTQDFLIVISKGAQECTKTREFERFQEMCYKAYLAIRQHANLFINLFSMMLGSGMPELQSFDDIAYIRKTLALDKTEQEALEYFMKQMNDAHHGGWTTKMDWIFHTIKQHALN

| Compound | Ki |
| --- | --- |
| Nc1ncc(-c2nc(N3CCOCC3)nc(N[C@]3(CO)CCCNC3)c2F)cn1 [Example 144, [(3R)-3-{[2′-amino-5-fluoro-2-(morpholin-4-yl)-4,5′-bipyrimidin-6-yl]amino}piperidin-3-yl]methanol] | 13.9 nM |
| COC(=O)N1CC[C@](CO)(Nc2nc(-c3cnc(N)nc3)nc(N3CCOCC3)n2)C1 [Example 11, methyl (3S)-3-{[4-(2-aminopyrimidin-5-yl)-6-(morpholin-4-yl)-1,3,5-triazin-2-yl]amino}-3-(hydroxymethyl)pyrrolidine-1-carboxylate] | 0.103 nM |
| CCCOC(=O)N1CC[C@](CO)(Nc2cc(-c3cnc(N)nc3)nc(N3CCOCC3)n2)C1 [Example 77, propyl (3S)-3-{[2′-amino-2-(morpholin-4-yl)-4,5′-bipyrimidin-6-yl]amino}-3-(hydroxymethyl)pyrrolidine-1-carboxylate] | < 0.018 nM |
| Nc1ncc(-c2cc(N[C@@]3(CO)CCN(C(=O)[C@@H](O)c4ccccc4)C3)nc(N3CCOCC3)n2)cn1 [Example 60, (2S)-1-[(3S)-3-{[2′-amino-2-(morpholin-4-yl)-4,5′-bipyrimidin-6-yl]amino}-3-(hydroxymethyl)pyrrolidin-1-yl]-2-hydroxy-2-phenylethanone] | 12.7 nM |
| COC(=O)N1CCC[C@](CO)(Nc2nc(N3CCOCC3)nc(-c3cnc(N)nc3)c2F)C1 [Example 154, methyl (3S)-3-{[2′-amino-5-fluoro-2-(morpholin-4-yl)-4,5′-bipyrimidin-6-yl]amino}-3-(hydroxymethyl)piperidine-1-carboxylate] | < 0.018 nM |
| CC(O)[C@]1(Nc2cc(-c3cnc(N)nc3)nc(N3CCOCC3)n2)CCN(C(=O)OC(C)(C)C)C1 (stereo partly drawn) [Example 10, tert-butyl (3S)-3-{[2′-amino-2-(morpholin-4-yl)-4,5′-bipyrimidin-6-yl]amino}-3-(1-hydroxyethyl)pyrrolidine-1-carboxylate] | 1.62 nM |
| Nc1ncc(-c2cc(N[C@@]3(CO)CCN(C(=O)NCC(F)F)C3)nc(N3CCOCC3)n2)cn1 [Example 131, (3S)-3-{[2′-amino-2-(morpholin-4-yl)-4,5′-bipyrimidin-6-yl]amino}-N-(2,2-difluoroethyl)-3-(hydroxymethyl)pyrrolidine-1-carboxamide] | 0.205 nM |
| CC(=O)N1CCC[C@@](CO)(Nc2nc(N3CCOCC3)nc(-c3cnc(N)nc3)c2F)C1 [Example 152, 1-[(3R)-3-{[2′-amino-5-fluoro-2-(morpholin-4-yl)-4,5′-bipyrimidin-6-yl]amino}-3-(hydroxymethyl)piperidin-1-yl]ethanone] | 1.65 nM |
| Nc1ncc(-c2nc(N3CCOCC3)nc(N[C@@]3(CO)CCN(C(=O)NCC(F)F)C3)c2F)cn1 [Example 132, (3S)-3-{[2′-amino-5-fluoro-2-(morpholin-4-yl)-4,5′-bipyrimidin-6-yl]amino}-N-(2,2-difluoroethyl)-3-(hydroxymethyl)pyrrolidine-1-carboxamide] | 0.097 nM |
| CCC1(Nc2cc(-c3cnc(N)nc3)nc(N3CCOCC3)n2)CCN(C(=O)OC(C)(C)C)C1 (centres unmarked) [Example 28, tert-butyl 3-{[2′-amino-2-(morpholin-4-yl)-4,5′-bipyrimidin-6-yl]amino}-3-ethylpyrrolidine-1-carboxylate] | 0.201 nM |
| Nc1ncc(-c2cc(N[C@@]3(CO)CCN(C(=O)OCC(F)F)C3)nc(N3CCOCC3)n2)cn1 [Example 79, 2,2-difluoroethyl (3S)-3-{[2′-amino-2-(morpholin-4-yl)-4,5′-bipyrimidin-6-yl]amino}-3-(hydroxymethyl)pyrrolidine-1-carboxylate] | 0.021 nM |
| Nc1ncc(-c2cc(N[C@@]3(CO)CCN(C(=O)C4(F)CC4)C3)nc(N3CCOCC3)n2)cn1 [Example 56, [(3S)-3-{[2′-amino-2-(morpholin-4-yl)-4,5′-bipyrimidin-6-yl]amino}-3-(hydroxymethyl)pyrrolidin-1-yl](1-fluorocyclopropyl)methanone] | < 0.018 nM |
| COC(=O)N1CC[C@](CO)(Nc2nc(N3CCOC[C@@H]3C)nc(-c3cnc(N)nc3)c2F)C1 [Example 114, methyl (3S)-3-({2′-amino-5-fluoro-2-[(3S)-3-methylmorpholin-4-yl]-4,5′-bipyrimidin-6-yl}amino)-3-(hydroxymethyl)pyrrolidine-1-carboxylate] | < 0.018 nM |
| Nc1ncc(-c2cc(N[C@@]3(CO)CCN(C(=O)N4CCC4)C3)nc(N3CCOCC3)n2)cn1 [Example 89, [(3S)-3-{[2′-amino-2-(morpholin-4-yl)-4,5′-bipyrimidin-6-yl]amino}-3-(hydroxymethyl)pyrrolidin-1-yl](azetidin-1-yl)methanone] | < 0.018 nM |
| Nc1ncc(-c2nc(N3CCOCC3)nc(N[C@@]3(CO)CCCNC3)c2F)cn1 [Example 145, [(3S)-3-{[2′-amino-5-fluoro-2-(morpholin-4-yl)-4,5′-bipyrimidin-6-yl]amino}piperidin-3-yl]methanol] | 2.53 nM |
| CC(C)(C)OC(=O)N1CC(CO)(Nc2cc(-c3cnc(N)nc3)nc(N3CCOCC3)n2)C1 [Example 41, tert-butyl 3-{[2′-amino-2-(morpholin-4-yl)-4,5′-bipyrimidin-6-yl]amino}-3-(hydroxymethyl)azetidine-1-carboxylate] | 0.128 nM |
| Nc1ncc(-c2cc(N[C@@]3(CO)CCN(C(=O)N4CCCC4)C3)nc(N3CCOCC3)n2)cn1 [Example 78, [(3S)-3-{[2′-amino-2-(morpholin-4-yl)-4,5′-bipyrimidin-6-yl]amino}-3-(hydroxymethyl)pyrrolidin-1-yl](pyrrolidin-1-yl)methanone] | 0.267 nM |
| CCOC(=O)N1CC[C@](CO)(Nc2cc(-c3cnc(C)c(C#N)c3)nc(N3CCOCC3)n2)C1 [Example 128, ethyl (3S)-3-{[6-(5-cyano-6-methylpyridin-3-yl)-2-(morpholin-4-yl)pyrimidin-4-yl]amino}-3-(hydroxymethyl)pyrrolidine-1-carboxylate] | 110 nM |
| COCC(=O)N1CCC[C@](CO)(Nc2nc(N3CCOCC3)nc(-c3cnc(N)nc3)c2F)C1 [Example 150, 1-[(3S)-3-{[2′-amino-5-fluoro-2-(morpholin-4-yl)-4,5′-bipyrimidin-6-yl]amino}-3-(hydroxymethyl)piperidin-1-yl]-2-methoxyethanone] | 0.8 nM |
| CC(=O)N1CCC[C@](CO)(Nc2nc(N3CCOCC3)nc(-c3cnc(N)nc3)c2F)C1 [Example 153, 1-[(3S)-3-{[2′-amino-5-fluoro-2-(morpholin-4-yl)-4,5′-bipyrimidin-6-yl]amino}-3-(hydroxymethyl)piperidin-1-yl]ethanone] | 0.849 nM |
| COC(=O)N1CCC[C@@](CO)(Nc2cc(-c3cnc(N)nc3)nc(N3CCOCC3)n2)C1 [Example 6, methyl (3R)-3-{[2′-amino-2-(morpholin-4-yl)-4,5′-bipyrimidin-6-yl]amino}-3-(hydroxymethyl)piperidine-1-carboxylate] | 0.881 nM |
| COCC(=O)N1CCC[C@@](CO)(Nc2nc(N3CCOCC3)nc(-c3cnc(N)nc3)c2F)C1 [Example 151, 1-[(3R)-3-{[2′-amino-5-fluoro-2-(morpholin-4-yl)-4,5′-bipyrimidin-6-yl]amino}-3-(hydroxymethyl)piperidin-1-yl]-2-methoxyethanone] | 1.82 nM |
| C[C@H]1COCCN1c1nc(N[C@@]2(CO)CCN(C(=O)OC3CC3)C2)cc(-c2cnc(N)nc2)n1 [Example 102, cyclopropyl (3S)-3-({2′-amino-2-[(3S)-3-methylmorpholin-4-yl]-4,5′-bipyrimidin-6-yl}amino)-3-(hydroxymethyl)pyrrolidine-1-carboxylate] | < 0.018 nM |
